Assay type in all cases: cell-based
The subject of one assay is red blood cells. As to the kind of experiment: Lysis of red blood cells by saponin. Conditions: saponin 0-8 μg/well, 30 minutes, compared to solvent control, FIG. 6. The procedure:
Red blood cells were pre-treated with either octanol, diglyceride, ceramide, or solvent before incubation with varying concentrations of saponin. The decrease in optical absorbance at 500 nm indicates increasing lysis.
Red cell membranes are treated with octanol, diglyceride, ceramide, or solvent before incubation with different concentrations of saponin (0-8 μg/well) for 30 minutes. Optical absorbance at OD500 is measured. Decreased optical absorbance indicates increasing lysis by saponin.

Another assay has as its system human fibroblasts. Kind of assay: Effect of octanol on fibroblast cholesterol. Particulars: 24 h in growth medium with octanol, FIG. 4. The procedure:
FIG. 4 depicts the effect of octanol on fibroblast cholesterol. Replicate flasks of fibroblasts were incubated for 24 h in growth medium with octanol. The cells were then assayed for cholesterol and protein.
The cultured cells described in Example 3 will be plated in microtiter wells and incubated with test compounds at 37° C. for two days to allow a full metabolic response. The drug will then be washed away, amphotericin B added to the wells and cell lysis followed from the leakage of potassium ions or another indicator, as above. Resistance to amphotericin B lysis will indicate that the objective has been achieved: the reduction of plasma membrane cholesterol in response to the test compound. Other polyene antibiotics (e.g., nystatin and filipin) will be tested in place of amphotericin B in order to discern their effects. In contrast to the screens described in the previous examples, which are used to identify compounds that raise the activity of membrane cholesterol, the present assay will measure the long-term effect of modulating cholesterol levels. Agents that increase plasma membrane cholesterol activity, when used as drugs, will signal cells to reduce their cholesterol accretion homeostatically. […] This can be detected by their increased resistance to amphotericin B, which normally lyses these cells.

The next assay concerns human red blood cells. Kind of assay: Screen using red blood cell lysis by amphotericin B. Conditions: for effect on amphotericin B lysis of red cells (activity of membrane cholesterol): cholesterol lowered with cyclodextrin, turbidity or by eye, FIGS. 1 and 2; for red blood cell lysis caused by amphotericin B (visual screen): cholesterol-modified cells, octanol 0.2 μmol/well or lysophosphatidylcholine 1 μg/well, amphotericin B 20 μg/well, 1 h, room temperature. The method, then:
Human red blood cells were either freshly drawn or taken from an outdated blood bank source and then washed and suspended in physiological buffer. The cholesterol content of washed human red blood cells was varied with methyl-β-cyclodextrin/methyl-β-cyclodextrin-cholesterol complexes. The cells were distributed into a 96-well plate and incubated for a few minutes with saline (O), 0.2 μmol/well octanol (V) or 1 μg/well lysophosphatidylcholine (□). Amphotericin B (20 μg/well) was added and the plate incubated for 1 hour at room temperature. […] In FIG. 1, turbidity (signifying intact cells) was determined in a plate-reading photometer as optical density (OD) at 500 nm; loss of OD signifies lysis. In FIG. 1, results are plotted versus total human red blood cell cholesterol, assessed with Amplex™ Red, Molecular Probes, Eugene, Oreg. The cholesterol content of unmodified red blood cells was 0.55 μg/μl cells, close to the threshold of the control curve.
Cells with modified cholesterol were placed in the conical wells of a 96-well plate, briefly pre-incubated with the two test compounds, and then treated with amphotericin B (20 μg/well) for one hour at room temperature. The plate was photographed after the cells settled. Row A: saline control. Cells depleted of cholesterol (wells 1-6) resisted lysis (seen as a loss of the central button). Row B: n-octanol (0.2 μmol/well). […] Row C: Lysophosphatidylcholine (1 μg/well).
Human red cells (freshly drawn or from an outdated blood bank source) were washed and suspended in physiological buffer. […] The cholesterol modified cells were placed in the wells of a microtiter plate and incubated for a few minutes at room temperature with octanol and lysophosphatidylcholine, which can be replaced with a battery of drugs (individually or in mixtures). Amphotericin B was then added and the plate incubated at room temperature for an hour. Cell lysis was scored by reading light scattering in a plate-reading photometer (FIG. 1) or, more simply, by letting the unlysed cells settle for an hour in conical wells and then assessing hemolysis by eye (FIG. 2).
Polyene antibiotics such as amphotericin B are known to promote the disruption of cholesterol containing membranes. However, this action depends critically on the cholesterol level in the membrane (see the control curves, O - - - O, in FIGS. 1 and 2). The critical cholesterol content for lysis is close to the physiological level in human fibroblast plasma membranes, for the same reason that ER cholesterol responds dramatically near the physiological content of the plasma membrane. […]

Assay [1] has as its system human fibroblast cell line. As to the kind of experiment: Fibroblast plasma membrane cholesterol susceptibility to cholesterol oxidase. Conditions: adding 0.1-1.0 mM octanol. The procedure: A human fibroblast cell line is grown in bulk culture and seeded into microtiter wells the day before experimentation. The fibroblast cells from the fibroblast cell line are rinsed and treated with octanol plus cholesterol oxidase as in Example 2. The increased level of plasma membrane cholesterol activity is detected in two ways. First, plasma membrane cholesterol activity is detected by susceptibility to cholesterol oxidase. […] Cell lysis caused by cholesterol oxidation can also be determined by measuring increased cell permeability using a plate fluorescence reader and the impermeable indicator of potassium ions, PBFI, or another indicator system.

Another assay concerns red cell membranes. As to the kind of experiment: Oxidation of red cell membrane cholesterol by cholesterol oxidase. Conditions: 0-12 μmolar analog pretreatment; cholesterol oxidase 1 h, FIG. 5. The procedure: The red cell membranes were pretreated with ceramide or diglycerides and then treated with cholesterol oxidase for a hour. An increase in oxidation following cholesterol oxidase treatment signifies an increase in active cellular cholesterol.
Red cell membrane lysis is measured using cholesterol oxidase as set forth in the examples above. Prior to lysis, red cell membranes are treated with either differing amounts of a ceramide analog (0-12 μmolar) or differing amounts of a diglyceride analog (0-12 μmolar). The increased level of plasma membrane cholesterol activity is detected by susceptibility to cholesterol oxidase and measured as a % of oxidation.

For `CCCCCCCCO` [octanol, n-octanol], in the assay with red blood cells, the “lysis of red blood cells by saponin (OD500)” value is “increase lysis of red blood cells at lower concentrations of saponin”. Also, the “fibroblast cell cholesterol after prolonged culture” value with human fibroblasts is “resulted in cholesterol reduction”. Further, in the assay on human red blood cells, the “effect on amphotericin B lysis of red cells (activity of membrane cholesterol)” value was “favors amphotericin B lysis” and the “red blood cell lysis caused by amphotericin B (visual screen)” value is listed as “Even cholesterol depleted cells were lysed by amphotericin B”. Moreover, the “oxidation of fibroblast cholesterol by cholesterol oxidase” value in assay [1] is “readily oxidized”.

For ceramide, in the assay with red cell membranes, the “susceptibility of red cell cholesterol to oxidation by cholesterol oxidase (% of oxidation)” value was “increase the susceptibility of red cell cholesterol to oxidation”. Besides, the “lysis of red blood cells by saponin (OD500)” value with red blood cells is reported as “increase lysis of red blood cells at lower concentrations of saponin”.

Take lysophosphatidylcholine: in the assay with human red blood cells, the “effect on amphotericin B lysis of red cells (activity of membrane cholesterol)” value is listed as “has the opposite effect” and the “red blood cell lysis caused by amphotericin B (visual screen)” value is reported as “Even enriched cells resisted amphotericin B lysis”.

These data come from patent US9110051B2, “Pharmacologic method of lowering cholesterol production” (The University of Chicago, priority 2004, dated 2015).
